Results published in patent EP4603105A1, “PHARMACEUTICAL COMPOSITION CONTAINING CYCLIC COMPOUND HAVING SELECTIVE KRAS INHIBITORY EFFECT AGAINST HRAS AND NRAS” (CHUGAI SEIYAKU KABUSHIKI KAISHA, priority 2022, dated 2024).
*1 amine or outer side, *2 acyl side, *3 side chain or, on linkers, in order; H or OH if unused. Where a SMILES comes first, the peptide text is derived from it. Bridges are numbered along the chain shown (N, C = ends). [ ]: non-standard residue; d: D form. The star is where a group is joined. hPhe(3,5-F2-4-CF3) = N[C@@H](CCc1cc(F)c(C(F)(F)F)c(F)c1)C(=O)O; hPhe(3-Cl-4-CF3) = N[C@@H](CCc1ccc(C(F)(F)F)c(Cl)c1)C(=O)O; NPrPhe(4-CF3) = CCCN[C@@H](Cc1ccc(C(F)(F)F)cc1)C(=O)O; X26 = CCCN([C@@H](Cc1ccc(F)cc1)C(=O)[*:2])[*:1]; NEtPhe(4-Me) = CCN[C@@H](Cc1ccc(C)cc1)C(=O)O; NMeAbu(4,4,4-F3) = CN[C@@H](CC(F)(F)F)C(=O)O; NMeGly(cPent) = CN[C@H](C(=O)O)C1CCCC1; Nva(3-Et) = CCC(CC)[C@H](N)C(=O)O; NMeI = CC[C@H](C)[C@H](NC)C(=O)O; NMeD = CN[C@@H](CC(=O)O)C(=O)O; NMeL = CN[C@@H](CC(C)C)C(=O)O; Morpholide = C1CN(*)CCO1; NMeA = CN[C@@H](C)C(=O)O; Ac5c = NC1(C(=O)O)CCCC1; Aze = O=C(O)[C@@H]1CCN1; NEtG = CCNCC(=O)O; Sar = CNCC(=O)O

Columns and labels:
[1] = biological target: GDP-bound NRAS wild-type protein (Homo sapiens, UniProt P01111); assay: Binding to NRAS by surface plasmon resonance (SPR), KD and KD ratio to KRAS
Sequence of GDP-bound NRAS wild-type protein (P01111 whole entry): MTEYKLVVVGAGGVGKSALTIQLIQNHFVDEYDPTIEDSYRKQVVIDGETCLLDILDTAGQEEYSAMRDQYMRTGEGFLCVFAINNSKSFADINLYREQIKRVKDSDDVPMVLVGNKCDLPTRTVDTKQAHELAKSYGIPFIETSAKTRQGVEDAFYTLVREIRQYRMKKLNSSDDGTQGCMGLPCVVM
In short: (§1)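 Recombinant RAS proteins bearing a biotinylated Avi tag and loaded with GDP served as the captured ligand, recaptured fresh every cycle. Binding responses were referenced to an uncoated surface and a buffer-only blank cycle. Dissociation constants were obtained by 1:1 model fitting at 30°C.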

HRAS wild-type protein = HRAS wild-type protein (Homo sapiens, UniProt P01112); assay: Binding to HRAS by surface plasmon resonance (SPR), KD and KD ratio to KRAS
Sequence of HRAS wild-type protein (P01112 whole entry): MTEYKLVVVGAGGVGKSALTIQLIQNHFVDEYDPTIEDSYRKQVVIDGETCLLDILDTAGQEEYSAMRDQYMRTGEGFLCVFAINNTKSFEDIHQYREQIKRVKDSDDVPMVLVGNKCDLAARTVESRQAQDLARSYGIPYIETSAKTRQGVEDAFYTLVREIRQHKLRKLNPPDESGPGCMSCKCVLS
In short: as §1

[2] = system: human lung cancer strain NCI-H441; format: cell-based
In short: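 Signal came from […] measured per well once the reagent was added. Beforehand, cells were cultured at 37°C and 5% carbon dioxide on a compound series serially diluted in dimethyl sulfoxide.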

[3] = ratio of KD for GDP-bound NRAS wild-type protein to KD for KRAS
[4] = ratio of KD for HRAS wild-type protein to KD for KRAS
[5] = ratio of KD with respect to GDP-bound NRAS wild-type protein to KD with respect to KRAS
[6] = ratio of KD with respect to HRAS wild-type protein to KD with respect to KRAS
[7] = ratio of the KD value with respect to GDP-bound NRAS wild-type protein to the KD value with respect to KRAS
[8] = ratio of the KD value with respect to HRAS wild-type protein to the KD value with respect to KRAS

IC50 [2] [nM]	SMILES	NRAS /KRAS [1, 3]	HRAS /KRAS (HRAS wild-type protein; [4])	also measured
96.8	CCO[C@@H]1C[C@H]2C(=O)NC3(CCC3)C(=O)N(C)[C@@H](C3CCCC3)C(=O)N(C)[C@H](C(=O)N(C)C)CC(=O)N(C)[C@@H](CC)C(=O)N[C@@H]([C@@H](C)CC)C(=O)N(C)CC(=O)N(C)[C@H]3CC(C)=CCN(C3=O)[C@@H](Cc3ccc(C(F)(F)F)cc3)C(=O)N(C)CC(=O)N[C@@H](CCc3cc(F)c(C(F)(F)F)c(F)c3)C(=O)N2C1 [PP1034]	C (A compound having a KD ratio of 0.1 or more and less than 3 is denoted as C)	C (A compound having a KD ratio of 0.1 or more and less than 3 is denoted as C)	
1.9	CCO[C@@H]1C[C@H]2C(=O)NC3(CC(C)(C)C3)C(=O)N(C)[C@@H](C3CCCC3)C(=O)N(C)[C@H](C(=O)N(C)CC)CC(=O)N(C)[C@@H](CC)C(=O)N[C@@H]([C@@H](C)CC)C(=O)N(C)CC(=O)N(C)[C@H]3C/C=C\CCN(C3=O)[C@@H](Cc3ccc(C)cc3)C(=O)N(C)CC(=O)N[C@@H](CCc3cc(F)c(C(F)(F)F)c(F)c3)C(=O)N2C1 [PP1886]			NRAS /KRAS ([1]; ratio of KD value for GDP-bound NRAS wild-type protein to KD value for KRAS (SPR)): A (a compound having 10 or more and less than 20 is denoted as A); HRAS /KRAS (HRAS wild-type protein; ratio of KD value for HRAS wild-type protein to KD value for KRAS (SPR)): B (a compound having 3 or more and less than 10 is denoted as B)
24.6	CC[C@H](C)[C@@H]1NC(=O)[C@H](CC(C)C)N(C)C(=O)C[C@@H](C(=O)N2CCOCC2)N(C)C(=O)[C@H](CC(C)C)N(C)C(=O)C2(CCCC2)NC(=O)[C@@H]2CCCN2C(=O)[C@H](CCc2ccc(C(F)(F)F)c(Cl)c2)NC(=O)CN(C)C(=O)[C@H](Cc2ccc(C)cc2)N(CC)C(=O)[C@@H]2CCN2C(=O)[C@H](C)N(C)C1=O [PP0016] ([NMeL]I[NMeA][Aze][NEtPhe(4-Me)][Sar][hPhe(3-Cl-4-CF3)]P[Ac5c][NMeL][NMeD]-Morpholide; lactam N-11)	C (A compound having a KD ratio of 0.1 or more and less than 3 is denoted as C)	C (A compound having a KD ratio of 0.1 or more and less than 3 is denoted as C)	
20.4	CC[C@H](C)[C@@H]1NC(=O)[C@H](CC(C)C)N(C)C(=O)C[C@@H](C(=O)N2CCOCC2)N(C)C(=O)[C@H]([C@@H](C)CC)N(C)C(=O)C2(CCCC2)NC(=O)[C@@H]2CCCN2C(=O)[C@H](CCc2ccc(C(F)(F)F)c(Cl)c2)NC(=O)CN(C)C(=O)[C@H](Cc2ccc(C)cc2)N(CC)C(=O)CN(C)C(=O)CN(C)C1=O [PP0043] ([NMeL]I[Sar][Sar][NEtPhe(4-Me)][Sar][hPhe(3-Cl-4-CF3)]P[Ac5c][NMeI][NMeD]-Morpholide; lactam N-11)	C (A compound having a KD ratio of 0.1 or more and less than 3 is denoted as C)	C (A compound having a KD ratio of 0.1 or more and less than 3 is denoted as C)	
4.2	CCO[C@@H]1C[C@H]2C(=O)NC3(CCC3)C(=O)N(C)[C@@H](C3CCCC3)C(=O)N(C)[C@H](C(=O)N(C)CC)CC(=O)N(C)[C@@H](CC(F)F)C(=O)N[C@@H]([C@@H](C)CC)C(=O)N(C)CC(=O)N(C)[C@H]3C/C=C\CCN(C3=O)[C@@H](Cc3ccc(C(F)(F)F)cc3)C(=O)N(C)CC(=O)N[C@@H](CCc3cc(F)c(C(F)(F)F)c(F)c3)C(=O)N2C1 [PP1303]			NRAS /KRAS [1, 5]: AA (a compound having 20 or more is denoted as AA); HRAS /KRAS (HRAS wild-type protein; [6]): A (a compound having 10 or more and less than 20 is denoted as A)
58.1	CCCN1C(=O)CN(C)C(=O)[C@@H]2CCN2C(=O)[C@H]([C@@H](C)CC)NC(=O)[C@H](CC(C)C)N(C)C(=O)C[C@@H](C(=O)N2CCOCC2)N(C)C(=O)[C@H](C2CCCC2)N(C)C(=O)C2(CCCC2)NC(=O)CN(C)C(=O)[C@H](CCc2ccc(C(F)(F)F)c(Cl)c2)NC(=O)CN(C)C(=O)[C@@H]1Cc1ccc(C(F)(F)F)cc1 [PP0314] ([NMeL]I[Aze][Sar][NPrPhe(4-CF3)][Sar][hPhe(3-Cl-4-CF3)][Sar][Ac5c][NMeGly(cPent)][NMeD]-Morpholide; lactam N-11)	B (a compound having 3 or more and less than 10 is denoted as B)	C (A compound having a KD ratio of 0.1 or more and less than 3 is denoted as C)	
45.9	CCCN1C(=O)CN(C)C(=O)CN(C)C(=O)[C@H](C(CC)CC)NC(=O)[C@H](CC(C)C)N(C)C(=O)C[C@@H](C(=O)N(C)C)N(C)C(=O)[C@H](C2CCCC2)N(C)C(=O)C2(CCCC2)NC(=O)[C@@H]2CCCN2C(=O)[C@H](CCc2cc(F)c(C(F)(F)F)c(F)c2)NC(=O)CN(C)C(=O)[C@@H]1Cc1ccc(C(F)(F)F)cc1 [PP0747] ([NMeL][Nva(3-Et)][Sar][Sar][NPrPhe(4-CF3)][Sar][hPhe(3,5-F2-4-CF3)]P[Ac5c][NMeGly(cPent)][NMeD]-NMe2; lactam N-11)			NRAS /KRAS [1, 7]: B (a compound having 3 or more and less than 10 is denoted as B); HRAS /KRAS (HRAS wild-type protein; [8]): C (A compound having a KD ratio of 0.1 or more and less than 3 is denoted as C)
9250	CC[C@H](C)[C@@H]1NC(=O)[C@H](CC(C)C)N(C)C(=O)CSC[C@H](C(=O)N(C)C)N(C)C(=O)[C@H](C2CCCC2)N(C)C(=O)C2(CCCC2)NC(=O)[C@@H]2CCCN2C(=O)[C@@H](CCc2cc(F)c(C(F)(F)F)c(F)c2)NC(=O)CN(C)C(=O)[C@H](Cc2ccc(C(F)(F)F)cc2)N2CC=CC[C@@H](C2=O)N(C)C(=O)CN(C)C1=O [PP3108]	C (A compound having a KD ratio of 0.1 or more and less than 3 is denoted as C)	B (a compound having 3 or more and less than 10 is denoted as B)	
8.6	CCO[C@@H]1C[C@H]2C(=O)NC3(CC(C)(C)C3)C(=O)N(C)[C@@H](CC(C)(C)C)C(=O)N(C)[C@H](C(=O)N(C)C)CC(=O)N(C)[C@@H](C(C)C)C(=O)N[C@@H]([C@@H](C)CC)C(=O)N(C)CC(=O)N(C)[C@H]3C/C=C\CCN(C3=O)[C@@H](Cc3ccc(C(F)(F)F)cc3)C(=O)N(C)CC(=O)N[C@@H](CCc3ccc(C(F)(F)F)c(OC)c3)C(=O)N2C1 [PP2773]	B (a compound having 3 or more and less than 10 is denoted as B)	B (a compound having 3 or more and less than 10 is denoted as B)	
55.4	CCCN1C(=O)CN(C)C(=O)CN(CC)C(=O)[C@H]([C@@H](C)CC)NC(=O)[C@H](CC(C)C)N(C)C(=O)C[C@@H](C(=O)N2CCOCC2)N(C)C(=O)[C@H](C2CCCC2)N(C)C(=O)C2(CCCC2)NC(=O)[C@@H]2CCN2C(=O)[C@H](CCc2ccc(C(F)(F)F)c(Cl)c2)NC(=O)CN(C)C(=O)[C@@H]1Cc1ccc(C(F)(F)F)cc1 [PP0294] ([NMeL]I[NEtG][Sar][NPrPhe(4-CF3)][Sar][hPhe(3-Cl-4-CF3)][Aze][Ac5c][NMeGly(cPent)][NMeD]-Morpholide; lactam N-11)	B (a compound having 3 or more and less than 10 is denoted as B)	C (A compound having a KD ratio of 0.1 or more and less than 3 is denoted as C)	
33.1	CC[C@H](C)[C@@H]1NC(=O)[C@H](CC(C)C)N(C)C(=O)C[C@@H](C(=O)N2CCOCC2)N(C)C(=O)[C@H](C2CCCC2)N(C)C(=O)C2(CCCC2)NC(=O)[C@@H]2CC(F)(F)CN2C(=O)[C@H](CCc2cc(F)c(C(F)(F)F)c(F)c2)NC(=O)CN(C)C(=O)[C@H](Cc2ccc(C(F)(F)F)cc2)N2CCCCC[C@@H](C2=O)N(C)C(=O)CN(C)C1=O [PP0491]			NRAS /KRAS [1, 7]: B (a compound having 3 or more and less than 10 is denoted as B); HRAS /KRAS (HRAS wild-type protein; [8]): B (a compound having 3 or more and less than 10 is denoted as B)
2.2	CCCN1C(=O)[C@@H]2CCN2C(=O)[C@H](C)N(C)C(=O)[C@H]([C@@H](C)CC)NC(=O)[C@H](CC(C)C)N(C)C(=O)C[C@@H](C(=O)N2CCOCC2)N(C)C(=O)[C@H](C2CCCC2)N(C)C(=O)C2(CCCC2)NC(=O)[C@@H]2CCCN2C(=O)[C@H](CCc2ccc(C(F)(F)F)c(Cl)c2)NC(=O)CN(C)C(=O)[C@@H]1Cc1ccc(F)cc1 [PP0219] ([NMeL]I[NMeA][Aze][X26][Sar][hPhe(3-Cl-4-CF3)]P[Ac5c][NMeGly(cPent)][NMeD]-Morpholide; lactam N-11)	C (A compound having a KD ratio of 0.1 or more and less than 3 is denoted as C)	B (a compound having 3 or more and less than 10 is denoted as B)	
158	CCCN1C(=O)CN(C)C(=O)CN(C)C(=O)[C@H]([C@@H](C)CC)NC(=O)[C@H](CC(C)C)N(C)C(=O)C[C@@H](C(=O)N2CCOCC2)N(C)C(=O)[C@H](CC(F)(F)F)N(C)C(=O)C2(CCCC2)NC(=O)[C@@H]2CCCN2C(=O)[C@H](CCc2cc(F)c(C(F)(F)F)c(F)c2)NC(=O)CN(C)C(=O)[C@@H]1Cc1ccc(C(F)(F)F)cc1 [PP0767] ([NMeL]I[Sar][Sar][NPrPhe(4-CF3)][Sar][hPhe(3,5-F2-4-CF3)]P[Ac5c][NMeAbu(4,4,4-F3)][NMeD]-Morpholide; lactam N-11)	B (a compound having 3 or more and less than 10 is denoted as B)	C (A compound having a KD ratio of 0.1 or more and less than 3 is denoted as C)	

SMILES	IC50 [2] [nM]	NRAS /KRAS [1, 3]	HRAS /KRAS (HRAS wild-type protein; [4])	also measured
CCC[C@H]1C(=O)N[C@@H]([C@@H](C)CC)C(=O)N(C)CC(=O)N(C)[C@H]2C/C=C\CCN(C2=O)[C@@H](Cc2ccc(C(F)(F)F)cc2)C(=O)N(C)CC(=O)N[C@@H](CCc2cc(F)c(C(F)(F)F)c(F)c2)C(=O)N2C[C@H](OCC)C[C@H]2C(=O)NC2(CCC2)C(=O)N(C)[C@@H](C2CCCC2)C(=O)N(C)[C@H](C(=O)N2CC3CCC(C2)O3)CC(=O)N1C [PP1315]	34.5			NRAS /KRAS [1, 5]: AA (a compound having 20 or more is denoted as AA); HRAS /KRAS (HRAS wild-type protein; [6]): A (a compound having 10 or more and less than 20 is denoted as A)
